Reference: PMC9511441, “Semisynthetic teicoplanin derivatives with dual antimicrobial activity against SARS-CoV-2 and multiresistant bacteria” (Scientific Reports, 2022)
In brackets after ≈: the same amount, converted by molar mass. Read-outs that look alike come from different tables or passages of the source.

Columns and labels:
[1] = system: VeroE6 cells; assay: Cytotoxicity in mock-infected VeroE6 cells (XTT); type: cell-based, African green monkey; conditions: mock-infected Vero E6 cells, three days, XTT
[2] = system: HCoV-229E; assay: CPE reduction assay, HCoV-229E in HEL cells; type: cell-based
[3] = target: T1, human recombinant cathepsin L (Homo sapiens, UniProt P07711); assay: biochemical; type: biochemical
T1 construct: made in house; host or cells: Escherichia coli
T1 sequence (P07711 114-333): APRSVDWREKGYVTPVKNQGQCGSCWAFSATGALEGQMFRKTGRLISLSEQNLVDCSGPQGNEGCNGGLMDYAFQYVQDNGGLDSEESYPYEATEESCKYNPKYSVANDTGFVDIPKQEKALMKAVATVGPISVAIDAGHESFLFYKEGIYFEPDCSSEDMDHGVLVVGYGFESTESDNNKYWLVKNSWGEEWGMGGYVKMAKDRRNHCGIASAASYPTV

[4] = system: HEL cells; assay: Cytotoxicity in mock-infected HEL cells (MTS); type: cell-based, human; conditions: mock-infected HEL cells, MTS, mean of 2–3 tests
[5] = system: S. aureus ATCC29213; assay: Fluorescent competition assay, release of fluorescent teicoplanin; type: binding; conditions: cells saturated with FL-TEI, Fig. 7 right panel
[6] = system: S. aureus ATCC29213; assay: Fluorescent competition assay, release of fluorescent vancomycin; conditions: cells saturated with FL-VAN, Fig. 7 left panel
[7] = system: SARS-CoV-2 pseudovirus; assay: microbe, parasite or virus in culture; type: cell-based; conditions: cathepsin-dependent endosomal pathway
[8] = system: S.pyogenes; assay: MIC, broth microdilution; type: cell-based; conditions: Streptococcus pyogenes
[9] = system: S. haemolyticus; assay: MIC, broth microdilution; type: cell-based; conditions: Staphylococcus haemolyticus
[10] = system: E. faecalis; assay: MIC, broth microdilution; type: cell-based; conditions: Enterococcus faecalis
[11] = system: S. aureus; assay: MIC, broth microdilution; type: cell-based; conditions: Staphylococcus aureus
[12] = system: Acinetobacter baumannii ATCC BAA1605; assay: MIC against Gram-negative strain; conditions: Acinetobacter baumannii, ATCCBAA1605
[13] = system: Klebsiella pneumoniae ST258 clone K 160/09; assay: MIC against Gram-negative strain; conditions: Klebsiella pneumoniae
[14] = system: Escherichia coli ATCC 25218; assay: MIC against Gram-negative strain; conditions: ATCC25218
[15] = system: E. faecium; assay: microbe, parasite or virus in culture; type: cell-based; conditions: for MIC: Enterococcus faecium
[16] = system: S. epidermidis; assay: microbe, parasite or virus in culture; type: cell-based; conditions: Staphylococcus epidermidis
[17] = system: Pseudomonas aeruginosa ATCC 27853; assay: MIC against Gram-negative strain; conditions: ATCC27853
[18] = system: Calu-3 cells; assay: Cytotoxicity in mock-infected Calu-3 cells (XTT); conditions: read-out: CC50, Calu-3 cells, three days

`CC(=O)N[C@H]1[C@H](O[C@@H]2c3ccc(c(Cl)c3)Oc3cc4cc(c3O)Oc3ccc(cc3Cl)C[C@H]3NC(=O)[C@H](NC(=N)N)c5ccc(O)c(c5)Oc5cc(O)cc(c5)[C@H](NC3=O)C(=O)N[C@H]4C(=O)N[C@H]3C(=O)N[C@@H]2C(=O)N[C@H](C(=O)O)c2cc(O)cc(O)c2-c2cc3ccc2O)O[C@H](CO)[C@@H](O)[C@@H]1O` [Compound 6] was tested, and the CC50 [1] was > 100 µM, the “Activity against HCoV-229E CPE (in words)” value [2] was “only modest activity” and the “Cathepsin L inhibition (in words)” value [3] was “did not prove to be an inhibitor”. The IC50 ([3]; read-out: Cathepsin L IC50, pH 5.5, Z-Phe-Arg-AMC substrate) was > 500 µM, the CC50 [4] was > 100 µM and the “Outcompeting fluorescent teicoplanin from S. aureus (in words)” value [5] was “the most active competitor”. For the same compound, the “Outcompeting fluorescent vancomycin from S. aureus (in words)” value [6] was “highly effective at outcompeting fluorescent vancomycin”, the “Inhibition of pseudovirus entry in Vero cells (in words)” value [7] was “moderately active” and the MIC ([8]; read-out: MIC value, S.pyogenes H232) was 0.125 µg/mL (≈ 0.0866 µM). For the same compound, the MIC ([8]; read-out: MIC value, S.pyogenes H550) was 0.125 µg/mL (≈ 0.0866 µM), the MIC ([8]; read-out: MIC value, S.pyogenes H578) was 0.125 µg/mL (≈ 0.0866 µM) and the MIC ([9]; S. haemolyticus mecA, 6 strains, read-out: Average MIC value) was 0.27 µg/mL (≈ 0.187 µM). The MIC ([9]; S.haemolyticus DALB_R1, mecA, read-out: MIC value) was 0.5 µg/mL (≈ 0.346 µM), the MIC ([9]; S.haemolyticus DALB_R2, mecA, read-out: MIC value) was 0.25 µg/mL (≈ 0.173 µM) and the MIC ([9]; S.haemolyticus DALB_R3, mecA, read-out: MIC value) was 0.25 µg/mL (≈ 0.173 µM). It also gave an MIC ([9]; S.haemolyticus DALB_R4, mecA, read-out: MIC value) of 0.125 µg/mL (≈ 0.0866 µM), an MIC ([9]; S.haemolyticus DALB_R5, mecA, read-out: MIC value) of 0.25 µg/mL (≈ 0.173 µM) and an MIC ([9]; S.haemolyticus ORI_R1, mecA, read-out: MIC value) of 0.25 µg/mL (≈ 0.173 µM). The MIC ([10]; read-out: Average MIC value, E. faecalis VAN^R,TEI^R/VanA, 1 strain) was 0.125 µg/mL (≈ 0.0866 µM), the MIC ([10]; read-out: Average MIC value, E. faecalis VAN^S, TEI^S, 2 strains) was 0.125 µg/mL (≈ 0.0866 µM) and the MIC ([10]; read-out: MIC value, E.faecalis JH2-2) was 0.125 µg/mL (≈ 0.0866 µM). For the same compound, the MIC ([10]; read-out: MIC value, E.faecalis OG1RF) was 0.125 µg/mL (≈ 0.0866 µM), the MIC ([10]; read-out: MIC value, E.faecalis V583, VAN,TEI/VanA) was 0.125 µg/mL (≈ 0.0866 µM) and the MIC ([11]; ATCC 29213 / MSSA, read-out: MIC value, S. aureus ATCC29213, MSSA) was 0.25 µg/mL (≈ 0.173 µM). For the same compound, the MIC ([11]; MRSA / USA300, read-out: MIC value, S. aureus USA300, CA-MRSA) was 0.125 µg/mL (≈ 0.0866 µM), the MIC ([11]; MRSA, read-out: Average MIC value, S. aureus CA-MRSA, 1 strain) was 0.125 µg/mL (≈ 0.0866 µM) and the MIC ([11]; MRSA, read-out: Average MIC value, S. aureus MRSA, 7 strains) was 0.125 µg/mL (≈ 0.0866 µM). For the same compound, the MIC ([11]; MRSA, read-out: MIC value, S. aureus 73OL, MRSA) was 0.125 µg/mL (≈ 0.0866 µM), the MIC ([11]; MRSA, read-out: MIC value, S. aureus 214OL, MRSA) was 0.125 µg/mL (≈ 0.0866 µM) and the MIC ([11]; MRSA, read-out: MIC value, S. aureus 1041OL, MRSA) was 0.125 µg/mL (≈ 0.0866 µM). It also gave an MIC ([11]; MRSA, read-out: MIC value, S. aureus A6918, MRSA) of 0.125 µg/mL (≈ 0.0866 µM), an MIC ([11]; MRSA, read-out: MIC value, S. aureus A6919, MRSA) of 0.125 µg/mL (≈ 0.0866 µM) and an MIC ([11]; MRSA, read-out: MIC value, S. aureus Mu50, MRSA) of 0.125 µg/mL (≈ 0.0866 µM). For the same compound, the MIC ([11]; MRSA, read-out: MIC value, S. aureus N315, MRSA) was 0.125 µg/mL (≈ 0.0866 µM), the MIC ([11]; MSSA / NEWMAN, read-out: MIC value, S. aureus Newman, MSSA) was 0.25 µg/mL (≈ 0.173 µM) and the MIC ([11]; MSSA, read-out: Average MIC value, S. aureus MSSA, 4 strains) was 0.188 µg/mL (≈ 0.13 µM). For the same compound, the MIC ([11]; MSSA, read-out: MIC value, S. aureus MSSA476, MSSA) was 0.125 µg/mL (≈ 0.0866 µM), the MIC ([11]; MSSA, read-out: MIC value, S. aureus SA564, MSSA) was 0.125 µg/mL (≈ 0.0866 µM) and the MIC [12] was 128 µg/mL (≈ 88.6 µM). For the same compound, the MIC [13] was 128 µg/mL (≈ 88.6 µM), the MIC [14] was 128 µg/mL (≈ 88.6 µM) and the MIC ([15]; read-out: Average MIC value, E. faecium VAN^R,TEI^R/VanA, 8 strains) was 0.156 µg/mL (≈ 0.108 µM). For the same compound, the MIC ([15]; read-out: Average MIC value, E. faecium VAN^S, TEI^S, 1 strain) was 0.0625 µg/mL (≈ 0.0433 µM), the MIC ([15]; read-out: MIC value, E.faecium E335, VAN,TEI,LNZ/VanA) was 0.125 µg/mL (≈ 0.0866 µM) and the MIC ([15]; read-out: MIC value, E.faecium E355, VAN,TEI,LNZ/VanA) was 0.125 µg/mL (≈ 0.0866 µM). For the same compound, the MIC ([15]; read-out: MIC value, E.faecium E832, VAN,TEI,LNZ/VanA) was 0.125 µg/mL (≈ 0.0866 µM), the MIC ([15]; read-out: MIC value, E.faecium E854, VAN,TEI,LNZ/VanA) was 0.125 µg/mL (≈ 0.0866 µM) and the MIC ([15]; read-out: MIC value, E.faecium E859, VAN,TEI,LNZ/VanA) was 0.125 µg/mL (≈ 0.0866 µM). For the same compound, the MIC ([15]; read-out: MIC value, E.faecium E1114, VAN,TEI,LNZ/VanA) was 0.5 µg/mL (≈ 0.346 µM), the MIC ([15]; read-out: MIC value, E.faecium E1131, VAN,TEI,LNZ/VanA) was 0.0625 µg/mL (≈ 0.0433 µM) and the MIC ([15]; read-out: MIC value, E.faecium E1132, VAN,TEI,LNZ/VanA) was 0.0625 µg/mL (≈ 0.0433 µM). The MIC ([15]; read-out: MIC value, E.faecium TX0016) was 0.0625 µg/mL (≈ 0.0433 µM), the “Activity against E. faecium strains expressing the VanA resistance phenotype (in words)” value ([15]; VanA phenotype) was “strong activity” and the MIC ([16]; read-out: Average MIC value, S. epidermidis mecA, 6 strains) was 0.1 µg/mL (≈ 0.0692 µM). It also gave an MIC ([16]; read-out: MIC value, S.epidermidis ORI_R1, mecA) of 0.0625 µg/mL (≈ 0.0433 µM), an MIC ([16]; read-out: MIC value, S.epidermidis ORI_R2, mecA) of 0.125 µg/mL (≈ 0.0866 µM) and an MIC ([16]; read-out: MIC value, S.epidermidis ORI_R3, mecA) of 0.0625 µg/mL (≈ 0.0433 µM). It also gave an MIC ([16]; read-out: MIC value, S.epidermidis ORI_R4, mecA) of 0.0625 µg/mL (≈ 0.0433 µM), an MIC ([16]; read-out: MIC value, S.epidermidis TEI_R1, mecA) of 0.0625 µg/mL (≈ 0.0433 µM) and an MIC ([16]; read-out: MIC value, S.epidermidis TEI_R2, mecA) of 0.25 µg/mL (≈ 0.173 µM). For the same compound, the MIC [17] was 256 µg/mL (≈ 177 µM) and the CC50 [18] was > 100 µM.
